The subject of data set [1] is Carrageenan-induced Paw Edema in rats. Briefly: Carrageenan-induced paw edema test. It counts as in vivo, Wistar-Imamichi rats. The note with it: Rattus norvegicus, oral, 3 hours after carrageenan, read-out: Inhibition Rate (%). As for the experimental part:
The same test compounds were subjected to the test as those in the Randall-Selitto test of Experiment 3. Wistar-Imamichi rats (males, 6 week old, body weights: 110-120 g) were used in this test.
The method of Winter, et al. [Proc. Soc. Exp. Biol. Med. 111, 544-547, (1962)] was slightly modified to perform the test [Sankyo Annual Research Report 39, 77-111, (1989)]. The rats were fasted for 16 hours prior to use. Inflammatory edema was induced by the subcutaneous injection of 0.05 ml of a 1% carrageenan (Viscarin 402) solution into the right hind paw of the animal. The test compounds were administered orally 30 minutes before injection of carrageenan. The volume of the right hind foot was measured with a Plethysmometer (Trade mark) (Ugo-Basile Co.) just before administration of the test compound and 3 hours after injection of carrageenan to determine the edema intensity [(right foot volume after 3 hours/right foot volume before injection)-1].
In general terms: Carrageenan injected into the paw causes an acute inflammation.

The test system of data set [2] is IL-1β production in human peripheral monocytes. Briefly: Inhibitory effect on IL-1β production in LPS-stimulated human peripheral monocytes. In kind it is cell-based. Particulars: Monocyte, LPS 10 μg/ml, 20 hours. As for the experimental part: (§1) (1) Peripheral blood was collected from healthy human volunteers in the presence of heparin. After mixing it with an equal volume of phosphate-buffered saline (PBS, Nissui Pharmaceutical), the mixture was layered onto Ficoll Paque medium (Pharmacia) at the rate of 2:1 and centrifuged at 520×g at 25° C. for 20 minutes. After centrifugation, the monocyte layer was removed and suspended in RPMI 1640 (Nissui Pharmaceutical) containing 10% fetal calf serum (FCS). The monocytes were washed once with the same medium, placed in a plastic Petri dish, pre-treated with human plasma and incubated for 2 hours in the presence of 5% CO2 to cause them to adhere to the dish. After incubation, the Petri dish was washed twice with PBS to remove the non-adherent cells. Thereafter, PBS containing 5% FCS and 0.2% EDTA was added to the Petri dish and the dish was allowed to stand undisturbed for 15 minutes at 4° C. The monocytes were recovered from the dish by pipetting. The cells were finally suspended in RPMI 1640 at a concentration of 1.25×10^5 cells/ml. (2) Culture of Human Monocytes
(§2) A 40 μl solution of the test compound and 40 μl of lipopolysaccharide (LPS; E. coli, 0.26:B6, Difco), adjusted to a final concentration of 10 μg/ml, were added to 320 μl of cell suspension. The resulting mixture was then cultured for 20 hours in the presence of 5% CO2 and the supernatant was removed at the end of cultivation to assay IL-1β and TNFα. The test compound was dissolved in dimethyl sulfoxide and diluted by a factor of 100 with FCS to reach 10 times the final concentration (the final concentrations of dimethyl sulfoxide and FCS were 0.1% and 10%, respectively).
(§3) The amount of IL-1β was measured with a commercially available ELISA kit (Cayman), after diluting the supernatant medium by a factor of 15 or 30 with the ELISA buffer. The amount of TNFα was similarly measured by a ELISA kit (Genzyme) after diluting the supernatant by a factor of 2.
(§4) The IC50 was calculated from the regression line determined by the inhibition rates and the concentrations of the test compound.

For data set [3], the system named is yeast-inflamed pain in rats. The experiment in a line: Analgesic effect on yeast-inflamed pain in rats (Randall-Selitto method). In kind it is in vivo, Wistar-Imamichi rats. The note with it: Rattus norvegicus, oral, pain threshold 0.5, 1 and 2 hours after administration, read-out: Efficacy Rate (No. of animals in which drug was effective/No. of animals used in test) (converted). The protocol:
The compound was suspended in 0.5%tragacanth and administered orally at a volume of 5 ml/kg. The control group was administered with 0.5% tragacanth only as a vehicle.
Wistar-Imamichi rats (males, 5 week old, body weights: 80-100 g) were used in this test.
The test was conducted in accordance with the method of Winter and Flataker [J. Pharmacol. Exp. Ther. 150, 165-171, (1965)], which is a modification of the original method of Randall and Selitto [Arch. Int. Pharmacodyn. Ther. 111, 405-419, (1957)]. The rats were fasted for 16 hours prior to use. Inflammation was induced by subcutaneous injection of 0.1 ml of a suspension of 20% beer yeast (Sigma) into the right hind footpad of the animal. After 4.5 hours, increasing pressure was applied to the inflamed footpad at a constant speed using an Analgesy meter (Trade mark) (Ugo-Basile Co.).
First the average of pain threshold values at each time point (0.5, 1, and 2 hr) was calculated in a control group. If a pain threshold value exceeded 2 times the control average value at the same time point even once in the drug-treated groups, then the animal was considered to indicate efficacy. Efficacy rates of the drug were estimated by the evaluation method of Blake [J. Pharm. Pharm. 19, 367-373, (1967)].

Data set [4] has as its system TNFα production in human peripheral monocytes. The experiment in a line: Inhibitory effect on TNFα production in LPS-stimulated human peripheral monocytes. Particulars: Monocyte, LPS 10 μg/ml, 20 hours. It counts as cell-based. As for the experimental part: as §1, §2, §3, §4
For a further data set, the system named is gastric mucosa. The experiment in a line: Irritative effect on gastric mucosa. In kind it is in vivo, Wistar rats. The note with it: oral; dose producing 50% incidence of gastric ulcers, 3.5 hours after dosing. The protocol: Experiments were performed according to the method described by Jahn and Adrian [Arzneim.-Forsch. 19, 36, (1969)]. Male Wistar rats weighing approximately 120 g were fasted for 16 hours before the experiment. The drugs were administered orally to rats as described in Experiment 3. Three and the half hours after dosing, the animals were killed under ether-anesthesia and the stomachs were placed into 1% of formalin. The stomach was opened by cutting along the greater curvature and the number and length of lesions were counted under a microscope (6.3×10). The ulcerogenicity in each animal was assessed according to Hitchens et. al. [Pharmacologist 9, 242, (1967)]. Incidence was determined as the rate of rats with 4 or more ulcers of more than 0.5 mm length, and UD50's (doses producing 50% incidence) were calculated from the incidence and the dose by probit (=probability unit) method.

The test system of data set [5] is scald-induced Pain in rats. The experiment in a line: Scald-induced pain test. Particulars: oral; pain response time, mean of 1 and 2 hours after dosing. In kind it is in vivo, Wistar-Imamichi rats. The protocol:
The test was conducted in accordance with the method of Iizuka and Tanaka [Jpn. J. Pharmacol. 70, 697, (1967)]. The test compound was administered in the same manner as in Experiment 3. Male Wistar-Imamichi rats (4-5 week old, body weights: approximately 100 g) were used after fasting for 16 hours. The right hind foot of the animal was immersed in hot water at 57° C. for 6 seconds to induce scald under ether-anesthesia. Two hours later, the scald foot of the rat was irritated by immersing in hot water at 40° C. for 5 seconds, and the animal was returned to the cage. […] Lifting up the scalded foot or licking it without coming in contact with the metal cage were considered to be pain responses. Pain response time was determined as the total time of the pain response during the 30-second observation period. […] Pain response time was again measured 1 and 2 hours after dosing and the mean value was determined. Using the mean values, inhibition rates were calculated relative to the control group. ID50 was calculated from the regression line determined by the inhibition rates and the doses.

The next data set relates to yeast-induced fever. Briefly: Antipyretic effect on yeast-induced fever. In kind it is in vivo, Wistar-Imamichi rats. The note with it: Dose: 0.4 mg/kg, oral; mean of 1 and 2 hours after dosing. The protocol:
The method of Roszkowski et al. [J. Pharmacol. Exp. Ther. 179, 114, (1971)] was slightly modified to perform the test. The test compound was administered in the same manner as in Experiment 3. Male Wistar-Imamichi rats (6 week old, body weights: approximately 120 g) were used in the test. Yeast (Brewer's yeast, Sigma) was suspended in physiological saline to a concentration of 25%, finely crushed in an agate mortar, and injected subcutaneously into the backs of the rats under ether-anesthesia at a volume of 2 ml/rat. The rats were fasted after the injection of yeast. On the following day (19 hours after the yeast injection), a catheter-type thermistor thermometer (Japan Koden, MGA III) was inserted approximately 5 cm into the rectum to measure the temperature of the animals. […] Rectal temperatures were measured 1 and 2 hours after administration of the test compound, and fever temperature was calculated by subtracting the normal temperature of healthy animals measured simultaneously. Inhibition rate of the group treated with the compound relative to the control group was calculated by using the mean value at 1 and 2 hours after dosing.

For data set [6], the system named is LTB4 production from human peripheral monocytes. Briefly: Inhibitory effect on LTB4 production from human peripheral monocytes. It counts as cell-based. The note with it: Monocyte, LTB4 in culture supernatant, ELISA. As for the experimental part:
The isolation of monocytes was carried out as described in Experiment 2-(1).
The cell culture was carried out as described in Experiment 2-(2).
The supernatant of the culture medium after incubation was subjected to the ELISA assay (Cayman). IC50 values were calculated by the least square method from the regression line determined by the inhibition rates and the doses.
Background: In an ELISA, binding on a coated surface is turned into a signal by an enzyme label.

pIC50: −log10 of the molar value. Some results are limits rather than exact numbers.

By inhibition is commonly meant the drop in the measured response relative to a control, in per cent. High values mean a strong effect, low ones a weak effect. As a reminder, the melting point is the temperature of the solid-liquid transition. What is called pIC50 is the IC50 on a negative log10 scale, so that one unit is a factor of ten.

Turning to `CS(=O)(=O)c1ccc(-c2cccn2-c2ccc(F)cc2F)cc1` [Example 7, 1-(2,4-Difluorophenyl)-2-(4-methylsulfonylphenyl) pyrrole], the inhibition in vivo at 50 mg/kg in data set [1] amounted to 56%. The molecule also came in with an inhibition at 10 µM in data set [2] of 42.6%. Moreover, the responders at 12.5 mg/kg in [3] is 100%.

On to `CS(=O)(=O)c1ccc(-c2ccc(F)n2-c2ccc(F)cc2)cc1` [Example 41, 5-Fluoro-1-(4-fluorophenyl)-2-(4-methylsulfonylphenyl)pyrrole], for which the inhibition in vivo at 50 mg/kg in data set [1] was found to be 60%. Also, at 10 µM the inhibition in [2] was 51.2%.

Regarding `CS(=O)(=O)c1ccc(-c2ccc(C(F)(F)F)n2-c2ccc(F)cc2)cc1` [Example 44, 5-Trifluoromethyl-1-(4-fluorophenyl)-2-(4-methylsulfonylphenyl)pyrrole], the melting point lay within 136 to 139 °C.

`CS(=O)(=O)c1ccc(-c2cc(C(F)F)cn2-c2ccc(F)cc2)cc1` [Example 49, 1-(4-Fluorophenyl)-4-difluoromethyl-2-(4-methylsulfonylphenyl)pyrrole] returned an inhibition at 10 µM in [4] of 40.9%.

`COc1ccc(-n2cccc2-c2ccc(S(C)(=O)=O)cc2)cc1F` [Example 54, 1-(3-Fluoro-4-methoxyphenyl)-2-(4-methylsulfonylphenyl)pyrrole] showed an inhibition at 10 µM in [4] of 54.7%.

In the case of `CCOc1ccc(-c2cc(C)cn2-c2ccc(S(N)(=O)=O)cc2)cc1` [Example 67, 2-(4-Ethoxyphenyl)-4-methyl-1-(4-sulfamoylphenyl) pyrrole], in [1], the inhibition in vivo at 50 mg/kg worked out at 64%. Further, in the data set with gastric mucosa, the “UD50” value is more than 100 mg/kg. In data set [5], the “ID50” value amounted to 1.6 mg/kg. Moreover, in the data set on yeast-induced fever, the “Inhibition Rate (%)” value amounted to 78%. In [3], the responders at 12.5 mg/kg was 100%.

`CCCOc1ccc(-c2cc(C)cn2-c2ccc(S(N)(=O)=O)cc2)cc1` [Example 68, 4-Methyl-2-(4-propoxyphenyl)-1-(4-sulfamoylphenyl)pyrrole]: at 10 µM the inhibition in data set [4] was 42.6%.

For the molecule `Cc1cc(-c2ccc(C)c(C)c2)n(-c2ccc(S(N)(=O)=O)cc2)c1` [Example 78, 4-Methyl-2-(3,4-dimethylphenyl)-1-(4-sulfamoylphenyl)pyrrole], the pIC50 in [6] is 6.51. For the same molecule, the inhibition in vivo at 50 mg/kg in data set [1] was determined as 66%. For the same molecule, the “UD50” value with gastric mucosa is listed as more than 100 mg/kg. Besides, in [3], the responders at 12.5 mg/kg was 100%.

In data set [4], `COc1ccc(-c2cc(Cc3ccc(OC)c(OC4CCCC4)c3)cn2-c2ccc(S(N)(=O)=O)cc2)cc1` [Example 81, 4-(3-Cyclopentyloxy-4-methoxybenzyl)-2-(4-methoxyphenyl)-1-(4-sulfamoylphenyl)pyrrole] registered an inhibition at 10 µM of 46.1%.

Take `CSc1ccc(-n2cc(C)cc2-c2ccc(S(N)(=O)=O)cc2)cc1` [Example 84, 4-Methyl-1-(4-methylthiophenyl)-2-(4-sulfamoylphenyl)pyrrole]: the inhibition in vivo at 50 mg/kg in [1] was determined as 66%. For the same molecule, the “UD50” value in the data set with gastric mucosa is given as more than 100 mg/kg. In the data set on yeast-induced fever, the “Inhibition Rate (%)” value was 64%. Besides, in data set [3], the responders at 12.5 mg/kg was 100%.

For the molecule `CSc1ccc(-n2c(C)ccc2-c2ccc(S(N)(=O)=O)cc2)cc1` [Example 90, 5-Methyl-1-(4-methylthiophenyl)-2-(4-sulfamoylphenyl)pyrrole], in [1], the inhibition in vivo at 50 mg/kg stood at 64%. This molecule yielded an inhibition at 10 µM in [2] of 62.2%.

Values taken from patent USRE39420E1, “1,2-Diphenylpyrrole derivatives, their preparation and their therapeutic uses” (Sankyo Company, Limited, priority 1996, dated 2006).
